Measurements taken from publication PMC7567858, “Structure of inhibitor-bound mammalian complex I” (Nature Communications, 2020).

Legend:
[1] = target: T1, NDUFA10 (in mouse complex I) (Mus musculus, UniProt Q99LC3); assay: cryo-EM structure, […] Å; format: binding; details: nucleotide bound to NDUFA10, adenine stacks on Phe134
T1 construct: supernumerary subunit within native intact complex I from mouse heart mitochondria
T1 sequence (Q99LC3 36-355): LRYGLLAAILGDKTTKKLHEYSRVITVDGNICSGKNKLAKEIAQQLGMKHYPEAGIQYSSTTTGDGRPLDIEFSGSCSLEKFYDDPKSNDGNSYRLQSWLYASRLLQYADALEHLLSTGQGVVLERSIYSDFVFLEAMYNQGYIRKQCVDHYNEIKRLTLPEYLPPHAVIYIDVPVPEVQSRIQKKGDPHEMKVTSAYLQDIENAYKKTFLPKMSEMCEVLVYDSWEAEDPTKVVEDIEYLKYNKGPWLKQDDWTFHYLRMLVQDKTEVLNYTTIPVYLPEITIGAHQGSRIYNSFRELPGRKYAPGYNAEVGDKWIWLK

[2] = target: T2, complex I (NADH:ubiquinone oxidoreductase), bovine (Bos taurus, UniProt P03887+P17694+P42026); assay: NADH oxidation ([…]-380 nm) in complex I-AOX proteoliposomes; format: biochemical; details: Q10 in membrane phase (nmol per mg phospholipid), no piericidin, AOX recycling, 200 uM NADH, pH 7.5, 32 °C
T2 construct: gene NDUFS2; native intact 45-subunit complex I from heart; in proteoliposomes with Q10 and AOX, or detergent-solubilised (EPR sample); with NADH-ubiquinone oxidoreductase chain 2; NADH-ubiquinone oxidoreductase chain 3; NADH-ubiquinone oxidoreductase chain 4; NADH-ubiquinone oxidoreductase chain 4L; NADH-ubiquinone oxidoreductase chain 5; NADH-ubiquinone oxidoreductase chain 6; NADH-ubiquinone oxidoreductase 75 kDa subunit, mitochondrial; NADH dehydrogenase [ubiquinone] flavoprotein 1, mitochondrial; NADH dehydrogenase [ubiquinone] flavoprotein 2, mitochondrial; NADH dehydrogenase [ubiquinone] iron-sulfur protein 3, mitochondrial; NADH dehydrogenase [ubiquinone] iron-sulfur protein 8, mitochondrial

[3] = target: T2, complex I (NADH:ubiquinone oxidoreductase), bovine; assay: global kinetic fit of NADH oxidation in proteoliposomes; format: biochemical; details: two-site competitive model; second inhibitor binds more tightly; Q10 varied, AOX recycling, 200 uM NADH, pH 7.5, 32 °C
mouse complex I = target: T3, mouse complex I (Mus musculus, UniProt P03888+Q91WD5+Q9DC70); assay: cryo-EM structure, […] Å; details: ubiquinone-binding site, active state, cluster N2 reduced; NDUFS2 His59 and Tyr108
T3 construct: gene Ndufs2; native intact 45-subunit complex I purified from heart mitochondria in DDM; with NADH-ubiquinone oxidoreductase chain 2; NADH-ubiquinone oxidoreductase chain 3; NADH-ubiquinone oxidoreductase chain 4; NADH-ubiquinone oxidoreductase chain 4L; NADH-ubiquinone oxidoreductase chain 5; NADH-ubiquinone oxidoreductase chain 6; NADH-ubiquinone oxidoreductase 75 kDa subunit, mitochondrial; NADH dehydrogenase [ubiquinone] flavoprotein 1, mitochondrial; NADH dehydrogenase [ubiquinone] flavoprotein 2, mitochondrial; NADH dehydrogenase [ubiquinone] iron-sulfur protein 3, mitochondrial; NADH dehydrogenase [ubiquinone] iron-sulfur protein 8, mitochondrial
T3 sequence (Q91WD5 34-463): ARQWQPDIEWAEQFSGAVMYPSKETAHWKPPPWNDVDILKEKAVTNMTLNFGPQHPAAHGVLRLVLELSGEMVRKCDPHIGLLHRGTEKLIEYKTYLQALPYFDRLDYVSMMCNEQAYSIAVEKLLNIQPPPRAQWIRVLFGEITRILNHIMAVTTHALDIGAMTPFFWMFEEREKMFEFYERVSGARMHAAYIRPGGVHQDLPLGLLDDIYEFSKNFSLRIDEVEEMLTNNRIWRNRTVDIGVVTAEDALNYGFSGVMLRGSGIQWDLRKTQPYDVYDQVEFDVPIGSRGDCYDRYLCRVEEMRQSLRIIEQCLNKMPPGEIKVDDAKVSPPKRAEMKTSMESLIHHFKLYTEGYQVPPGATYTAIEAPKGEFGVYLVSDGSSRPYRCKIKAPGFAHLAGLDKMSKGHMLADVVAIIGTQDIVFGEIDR
T3 sequence (Q9DC70 36-224): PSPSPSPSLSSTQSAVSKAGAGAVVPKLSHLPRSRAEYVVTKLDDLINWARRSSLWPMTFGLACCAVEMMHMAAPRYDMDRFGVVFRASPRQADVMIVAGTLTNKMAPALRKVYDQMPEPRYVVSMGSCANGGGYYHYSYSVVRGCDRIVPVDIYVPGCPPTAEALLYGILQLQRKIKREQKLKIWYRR
T3 sequence (P03888 whole entry): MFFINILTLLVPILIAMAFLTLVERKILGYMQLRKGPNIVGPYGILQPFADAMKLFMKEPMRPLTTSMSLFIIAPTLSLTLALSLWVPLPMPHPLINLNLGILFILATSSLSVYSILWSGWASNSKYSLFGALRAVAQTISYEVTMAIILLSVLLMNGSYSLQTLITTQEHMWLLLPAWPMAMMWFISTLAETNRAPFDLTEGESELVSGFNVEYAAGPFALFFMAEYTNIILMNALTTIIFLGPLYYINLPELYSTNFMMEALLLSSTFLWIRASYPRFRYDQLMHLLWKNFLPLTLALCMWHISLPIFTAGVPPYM

T2 sequence (P17694 34-463): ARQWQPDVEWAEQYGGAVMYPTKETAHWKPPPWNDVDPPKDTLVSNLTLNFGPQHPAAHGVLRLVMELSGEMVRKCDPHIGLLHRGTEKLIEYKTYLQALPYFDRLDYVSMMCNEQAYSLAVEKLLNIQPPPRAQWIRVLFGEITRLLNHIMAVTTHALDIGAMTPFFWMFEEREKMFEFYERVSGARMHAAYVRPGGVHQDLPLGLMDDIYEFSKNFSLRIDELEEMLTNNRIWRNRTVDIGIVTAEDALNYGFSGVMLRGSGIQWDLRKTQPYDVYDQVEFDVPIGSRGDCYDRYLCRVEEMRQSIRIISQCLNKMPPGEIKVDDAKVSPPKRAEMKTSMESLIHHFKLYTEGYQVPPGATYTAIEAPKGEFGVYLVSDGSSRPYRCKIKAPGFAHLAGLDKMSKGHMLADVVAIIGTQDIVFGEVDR
T2 sequence (P42026 38-216): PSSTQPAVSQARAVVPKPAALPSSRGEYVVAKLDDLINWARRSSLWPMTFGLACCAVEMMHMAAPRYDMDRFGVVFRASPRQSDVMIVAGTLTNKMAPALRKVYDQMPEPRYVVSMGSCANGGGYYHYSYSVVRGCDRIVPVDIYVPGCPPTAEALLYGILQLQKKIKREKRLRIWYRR
T2 sequence (P03887 whole entry): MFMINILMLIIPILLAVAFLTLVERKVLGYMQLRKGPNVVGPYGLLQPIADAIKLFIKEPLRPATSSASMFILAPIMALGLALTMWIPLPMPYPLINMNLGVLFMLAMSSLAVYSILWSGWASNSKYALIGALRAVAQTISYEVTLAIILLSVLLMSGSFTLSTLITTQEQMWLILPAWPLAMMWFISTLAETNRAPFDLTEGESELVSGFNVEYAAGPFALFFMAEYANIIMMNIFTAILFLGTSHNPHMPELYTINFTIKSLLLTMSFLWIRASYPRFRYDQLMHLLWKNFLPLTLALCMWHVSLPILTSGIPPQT

Nc1ncnc2c1ncn2[C@@H]1O[C@H](COP(=O)(O)OP(=O)(O)OP(=O)(O)O)[C@@H](O)[C@H]1O [ATP]
cryo-EM structure, 3.0 Å [1]: replacement of the ADP bound to NDUFA10 with ATP

COC1=C(OC)C(=O)C(C/C=C(\C)CC/C=C(\C)CC/C=C(\C)CC/C=C(\C)CC/C=C(\C)CC/C=C(\C)CC/C=C(\C)CC/C=C(\C)CC/C=C(\C)CCC=C(C)C)=C(C)C1=O [Q10]
KM,app [2]: modelled by a series of Michaelis–Menten curves for their Q10 dependence

C/C=C(\C)[C@H](O)[C@H](C)/C=C(C)/C=C/C/C(C)=C/Cc1nc(OC)c(OC)c(O)c1C [piericidin A]
KI [3]: the second inhibitor binds substantially more tightly than the first
cryo-EM structure, 3.0 Å (mouse complex I): The piericidin headgroup binds adjacent to NDUFS2 His59 and Tyr108
